Measured values: patent US10335455B2, “Method for prevention or treatment of intractable inflammatory bowel disease” (University of Miyazaki, priority 2011, dated 2019)
“Also recorded” adds a separate entry of the source.

Experiments:
[1] = system: patients with steroid-resistant or steroid-dependent ulcerative colitis; assay: Continuous intravenous administration of adrenomedullin to patients with intractable ulcerative colitis; type: in vivo, human; conditions: for DAI (Average): 6 cases, immediately before administration 9.0 ± 1.4; for Endoscopic findings in the large bowel: maintenance of remission: continuation treatment azathioprine 50 mg/day
[2] = system: subjects including normal individuals; assay: Safety tests of continuous intravenous injection of adrenomedullin in subjects including normal individuals; type: in vivo, human
Description: (§1) The safety of continuous intravenous injection of adrenomedullin for 90 minutes was confirmed in 28 subjects including normal individuals. […] In the present Examples, 2 weeks of the animal test period was set to the continuous administration period.

[3] = system: various disease model animals; assay: Continuous intravenous injection of adrenomedullin for 1 month in disease model animals; type: in vivo; conditions: continuous intravenous injection for 1 month
Description: as §1

[4] = system: large bowel artificial ulcer model; assay: Enema administration to a large bowel artificial ulcer model; type: in vivo; conditions: 5.0 μg/kg body weight
[5] = system: DSS enteritis (diffuse colitis); assay: Administration in DSS enteritis (diffuse colitis) model; type: in vivo; conditions: 2.5 μg/kg body weight
[6] = system: inflammatory bowel disease model; type: in vivo
Text: Thus, in the adrenomedullin administration, a low dose to an extent not greatly affecting circulatory dynamics is preferably used; a high dose rather makes it worse.

colitis model = conditions: Gonzalez et al.; intraperitoneal administration of 12 μg/kg body weight; cited from earlier work

SMILES: CC[C@H](C)[C@H](NC(=O)[C@H](CCC(N)=O)NC(=O)[C@H](Cc1c[nH]cn1)NC(=O)[C@H](C)NC(=O)[C@H](CC(C)C)NC(=O)[C@H](CCCCN)NC(=O)[C@H](CCC(N)=O)NC(=O)[C@@H](NC(=O)[C@@H](NC(=O)[C@@H]1CSSC[C@H](NC(=O)CNC(=O)[C@H](Cc2ccccc2)NC(=O)[C@H](CO)NC(=O)[C@H](CCCNC(=N)N)NC(=O)[C@H](CC(C)C)NC(=O)CNC(=O)[C@H](CCC(N)=O)NC(=O)[C@H](Cc2ccccc2)NC(=O)[C@H](CC(N)=O)NC(=O)[C@H](CC(N)=O)NC(=O)[C@H](CCSC)NC(=O)[C@H](CO)NC(=O)[C@H](CCC(N)=O)NC(=O)[C@H](CCCNC(=N)N)NC(=O)[C@@H](N)Cc2ccc(O)cc2)C(=O)N[C@@H](CCCNC(=N)N)C(=O)N[C@@H](Cc2ccccc2)C(=O)NCC(=O)N[C@@H]([C@@H](C)O)C(=O)N1)[C@@H](C)O)C(C)C)C(=O)N[C@@H](Cc1ccc(O)cc1)C(=O)N[C@@H](CCC(N)=O)C(=O)N[C@@H](Cc1ccccc1)C(=O)N[C@H](C(=O)N[C@@H](CC(=O)O)C(=O)N[C@@H](CCCCN)C(=O)N[C@@H](CC(=O)O)C(=O)N[C@@H](CCCCN)C(=O)N[C@@H](CC(=O)O)C(=O)N[C@@H](CC(N)=O)C(=O)N[C@H](C(=O)N[C@@H](C)C(=O)N1CCC[C@H]1C(=O)N[C@@H](CCCNC(=N)N)C(=O)N[C@@H](CO)C(=O)N[C@@H](CCCCN)C(=O)N[C@H](C(=O)N[C@@H](CO)C(=O)N1CCC[C@H]1C(=O)N[C@@H](CCC(N)=O)C(=O)NCC(=O)N[C@@H](Cc1ccc(O)cc1)C(N)=O)[C@@H](C)CC)C(C)C)[C@@H](C)O [adrenomedullin, synthetic human adrenomedullin]
- DAI (Average) ([1]; 12 weeks after start of administration, p 0.0001): 1.0 ± 1.15
- DAI (Average) ([1]; 14 days after start of administration, 1.5 pmol/kg body weight/min i.v., 8 hours/day, p 0.0028): 5.0 ± 2.4
- Mucosal regeneration in the affected areas ([1]; all 6 cases): prominent mucosal regeneration was also confirmed
- Remission maintenance ([1]; all 6 cases): remission was maintained
- Treatment effects ([1]; all 6 cases of adrenomedullin administration): treatment effects were confirmed in all cases
- DAI improvement at 14 days after adrenomedullin administration ([1]; in 4 cases of 6): ≥ 4 points
- Blood pressure reduction ([1]; one patient, 1.5 pmol/kg body weight/min during 14 days of administration): ≤ 10 mmHg
- Variation in the blood concentration of adrenomedullin immediately after administration ([1]; one patient, 1.5 pmol/kg body weight/min i.v.): smaller than variation due to inflammation
- Endoscopic findings in the large bowel: maintenance of remission ([1]; one patient, 3 months after adrenomedullin administration): confirmed the maintenance of the remission; also recorded: Remission maintenance was confirmed
- Endoscopic findings in the large bowel: maintenance of remission ([1]; one patient, 12 months after adrenomedullin administration): also confirmed the maintenance of the remission
- Endoscopic findings in the large bowel ([1]; one patient, after 14 days of continuous administration, 1.5 pmol/kg body weight/min, 8 hours/day): remission due to adrenomedullin was confirmed; also recorded: marked proliferation of regenerated epithelium (left) and scarring of shallow wide ulcer (right)
- Symptoms considered to be side effects ([1]; one patient, during 14 days of administration): not observed
- Blood pressure reduction ([2]; 2.5 pmol/kg body weight/min, continuous administration for 27 hours): more than 20 mmHg
- Safety of continuous intravenous injection ([2]; 90 minutes, 28 subjects including normal individuals): confirmed
- Adverse events ([2]; continuous intravenous injection for 27 hours, 12 subjects): no adverse event was observed
- Safety and efficacy [3]: confirming the safety and efficacy thereof
- Effect in large bowel artificial ulcer model [4]: highest
- Effect in DSS enteritis (diffuse colitis) [5]: a high effect has also been observed
- Curve of adrenomedullin dose versus anti-inflammatory/mucosa-repairing effect ([6]; animal experiments): anti-bell shape
- Blood pressure reduction at the optimal (low) dose ([6]; in vivo): proved not to cause blood pressure reduction
- Efficacy in colitis model (colitis model): has shown the efficacy
